Results from publication PMC4514675, “Novel Apo E-Derived ABCA1 Agonist Peptide (CS-6253) Promotes Reverse Cholesterol Transport and Induces Formation of preβ-1 HDL In Vitro” (PLoS ONE, 2015).

Tested on: BHK-mock cells
Assay: Cholesterol efflux from BHK-mock cells to acceptor in human plasma
Assay type: cell-based, hamster
Experimental: We investigated cholesterol efflux from BHK cells after adding lipid free CS-6253 to media cell culture or to human EDTA-plasma which had been stored at -80°C. BHK overexpressing human ABCA1 were labeled with 2 μCi/ml ^3H-free cholesterol (Perkin Elmer, Norwalk, Connecticut) for 24 h. Afterward, BHK-ABCA1 were stimulated with 10 nmol/l mifepristone for 18–20 h (13). Cells were incubated with various doses of acceptor in media for 4 h at 37°C. Alternatively, plasma samples were first pre-incubated for 5 min at 37°C in plasma at mole ratios (10:1 or 1:1 relative to plasma apo A-I). To obtain the HDL fraction, apoB lipoproteins were precipitated from plasma by polyethylene glycol (PEG). Also, increased doses of lipid free CS-6253 and nHDL-CS-6253 were tested for cholesterol efflux after incubation with human plasma for optimum 1h at 37°C. ^3[H]-cholesterol loaded BHK cells expressing ABCA1 were incubated with 2.8% apoB depleted plasma samples [19] for 4 h for the efflux assays. Lipid free apo A-I and nHDL-apo A-I were used as control, nHDL-CS-6253 and nHDL-apo A-I were generated after incubation with BHK cells expressing ABCA1. […]
Fig 7 Dose dependent effects of pre-incubation of plasma with lipid free CS-6253, or nHDL-CS-6253 on ABCA1 cholesterol efflux. […] Isolated HDL fractions by PEG were separated by 2D-PAGGE and HDL subpopulations were detected by apo A-I Western blot. […]

## apolipoprotein A-I [apo A-I]
Acceptor in human plasma
  maximum efflux capacity, BHK-mock: similar
Acceptor in human plasma 1 h, 37°C
  Vmax, cholesterol efflux, BHK-mock: 0.30±0.15 % efflux/6h
